We go through 2 compounds from patent publication US20180318275A1, “COMBINATION THERAPY USING PI3K INHIBITOR AND MDM2 INHIBITOR” (Novartis AG, priority 2015, published 2018).

Common to all, as to assay: Cell proliferation (cell count by microscopy), Example 3
What all share (format): cell-based

One test deals with GP2d. The following applies: single agent, 72 h, cell count relative to DMSO, unit (micromolar, top dose 10 μM). On the procedure:
(§1) COMPOUNDS A, B and C were dissolved in 100% DMSO (Sigma, Catalog number D2650) at concentrations of 20 mM and stored at −20° C. until use. Compounds were arrayed in drug master plates (Greiner, Catalog number 788876) and serially diluted 3-fold (7 steps) at 2000× concentration.
(§2) To test the effect of the combination of COMPOUND A, COMPOUND B, and COMPOUND C on cell proliferation cells were plated in black 384-well microplates with clear bottom (Matrix/Thermo Scientific, Catalog number 4332) in 50 μL media per well at cell densities between 500 and 1250 cells/well (Table 1 above) and allowed to incubate at 37 degrees, 5% CO2 for 24 h. After 24 h one 384-well plate per cell line was prepared for cell counting by microscopy (see below) without receiving treatment (=‘baseline’). The other cell plates were treated by transferring 25 nL of the 2000× compound from drug master plates using an ATS acoustic liquid dispenser (ECD Biosystems) and resulting in a final 1× concentration. COMPOUND A was used over a final concentration range of 13 nM-10 μM, COMPOUND B was used over a final concentration range of 13 nM-10 μM, and COMPOUND C was used over a final concentration range of 13 nM-10 μM (7 1:3 dilution steps). In order to assess the effect of the triple combination all individual COMPOUNDS (A, B, C), all three pair wise combinations (A+B, A+C, B+C), and the triple combination (A+B+C) were tested in the same experiment. Pair wise combinations and the triple combination were tested at a fixed ratio of 1:1 (for drug pairs) and 1:1:1 (for the drug triple) at each dilution resulting in 7 combination conditions per treatment. […] After compound addition 50 nL of 2 mM CellEvent Caspase-3/7 Green Detection Reagent (ThermoFisher, Catalog number C10423) were added to one of the three replicates using the HP D300 Digital Dispenser (Tecan). Caspase 3/7 induction was measured as a proxy for apoptosis induced by the treatments. Cells were treated for 72 h to 96 h depending on their doubling time (Table 1), and Caspase 3/7 activation was measured every 24 h by microscopy using an InCell Analyzer 2000 (GE Healthcare) equipped with a 4× objective and FITC excitation/emission filters. At the end of the treatment cells were prepared for cell counting by microscopy. Cells were fixed and permeabilised for 45 minutes in 4% PFA (Electron Microscopy Sciences, Catalog number 15714), 0.12% TX-100 (Electron Microscopy Sciences, Catalog number 22140) in PBS (Boston Bioproducts, Catalog number BM-220). After washing cells three times with PBS their DNA was stained for 30 minutes with Hoechst 33342 (ThermoFisher, Catalog number H3570) at a final concentration of 4 μg/mL. Cells were washed three times with PBS and then plates were heat-sealed using a PlateLoc (Agilent Technologies) with aluminum seals (Agilent Technologies, Catalog number 06644-001) and stored at 4° C. until imaging. All cells per well/treatment were captured in a single image by fluorescence microscopy using an InCell Analyzer 2000 (GE Healthcare) equipped with a 4× objective and DAPI excitation/emission filters.
(§3) Images were analyzed after adapting previously described methods (Horn, Sandmann et al. 2011, Nat. Methods 8(4): 341-346) and using the Bioconductor package EBImage in R (Pau, Fuchs et al. 2010, Bioinformatics 26(7):979-981). Objects in both channels, DAPI (for Hoechst/DNA) and FITC (for Caspase 3/7), were segmented separately by adaptive thresholding and counted. A threshold for Caspase 3/7 positive objects was defined manually per cell line after comparing negative controls (DMSO) and positive controls (Staurosporine). By analyzing 17 additional object/nuclei features in the DNA channel (shape and intensity features) debris/fragmented nuclei were identified. To this end per cell line the distributions of the additional features between positive controls (Staurosporine) and negative controls (DMSO) were compared manually. […]

Another test deals with HCT-116. The settings on record: Homo sapiens; HCT-116, single agent, 72 h, cell count relative to DMSO. On the procedure:
as §1, §2, §3

A further test concerns LS-180. The following applies: Homo sapiens, LS180; LS-160 (so in the source), single agent, 72 h, cell count relative to DMSO. On the procedure: as §1, §2, §3
Another test concerns LoVo. The settings on record: Homo sapiens, single agent, 96 h, cell count relative to DMSO. On the procedure: as §1, §2, §3
A further test concerns RKO. The settings on record: Homo sapiens, single agent, 72 h, cell count relative to DMSO. On the procedure:
as §1, §2, §3

A word on the IC50: it is the concentration at which inhibition is half-maximal.

On to `Cc1nc(NC(=O)N2CCC[C@H]2C(N)=O)sc1-c1ccnc(C(C)(C)C(F)(F)F)c1` [COMPOUND A, (S)-Pyrrolidine-1,2-dicarboxylic acid 2-amide 1-({4-methyl-5-[2-(2,2,2-trifluoro-1,1-dimethyl-ethyl)-pyridin-4-yl]-thiazol-2-yl}-amide)], for which the IC50 in the test on GP2d was 500 nM; in the test with HCT-116 it was 9800 nM; in the test on LS-180 it was greater than 10000 nM; in the test with LoVo it was greater than 10000 nM; with RKO, 3900 nM.

Take `COc1cc2c(cc1OC(C)C)[C@H](c1ccc(Cl)cc1)N(c1ccc(N(C)C[C@H]3CC[C@H](N4CCN(C)C(=O)C4)CC3)cc1)C(=O)C2` [COMPOUND B, (S)-1-(4-Chloro-phenyl)-7-isopropoxy-6-methoxy-2-(4-{methyl-[4-(4-methyl-3-oxo-piperazin-1-yl)-trans-cyclohexylmethyl]-amino}-phenyl)-1,4-dihydro-2H-isoquinolin-3-one]: the IC50 with GP2d came to 800 nM; in the test on HCT-116, 100 nM; with LS-180 it was 700 nM; in the test with LoVo, 600 nM; in the test on RKO, 1200 nM.
